# Source: PMC3706879, “The neurotrophic compound J147 reverses cognitive impairment in aged Alzheimer's disease mice” (Alzheimer's Research & Therapy, 2013)
# Assays:
# [1] = tested on: C57BL/6J mice; assay: Y-maze, scopolamine induced memory impairment; format: in vivo; conditions: scopolamine 1 mg/kg i.p.; J147 200 ppm, donepezil 20 ppm in food for two weeks
# Protocol: A total of 60 male mice aged eight weeks were housed 4 per cage and were divided into five groups with 12 mice per group. Treatments were administered in the food (TestDiet® 5015, Richmond, IN, USA) for a period of two weeks before commencement of behavioral testing. […] Following two weeks of treatment, memory impairment was induced by intraperitoneal (i.p.) injection of scopolamine (1 mg/kg) 30 minutes prior to each of the following behavioral tests: Y-maze, probe trial of the water maze and contextual and cued fear conditioning. Mice were allowed to rest for two days between each behavior test. All mice received scopolamine except for one of the control groups, which received saline as a control. Mice were sacrificed 24 hours after the last behavioral test for tissue harvesting.
# Spontaneous alternation, the tendency to alternate free choices in a Y-maze (three arms), is a model for studying short term working memory in mice. Mice were injected with 1 mg/kg of scopolamine or saline 30 minutes prior to testing. Then each mouse was placed in the center of the Y and arm entries were recorded by video camera and the order of entries were recorded for the first 15 entries. Spontaneous alternations are defined as consecutive triplets of different arm choices.
# [2] = tested on: Caco-2
# [3] = pharmacokinetic profile in mice, per oral administration (Pharmaron); format: in vivo, CD1 Mice
# Protocol: The pharmacokinetics of J147 in the mouse brain and plasma were evaluated using standard procedures. Blood and brain distribution of J147 following per oral (PO) administration was plotted for mice as a function of time (Figure 5). […] Additional de-risking and target identification screens were carried out at 10 μM J147 by various CROs (Table 2). […] All original data are available upon request.
# Figure 5 Pharmacokinetic profile of J147 in mice. (A) The pharmacokinetic profile of J147 in mice was done by Pharmaron (Louisville, KY, USA). Plasma (B) and brain (C) distribution of J147 was plotted as a function of time following or per oral (PO) administration at 20 mg/kg.
# [4] = tested on: PC12 cells; assay: neurite outgrowth of PC12 cells with HT22 growth conditioned medium; format: cell-based
# Protocol: The HT22 cell line was used to make growth conditioned medium. HT22 is a nerve cell line derived from mouse brain and is widely used to study nerve cell physiology. To make HT22 growth conditioned medium, cells were grown in DMEM with 10% fetal calf serum. Then, semiconfluent cultures were washed three times with serum-free DMEM and cultured overnight in a reduced volume of DMEM in the presence or absence of 100 nM J147. The following day, the growth conditioned medium was collected and centrifuged at 10,000 × g to remove detached cells. To determine the effect of the conditioned medium on NGF-induced neurite outgrowth, PC12 cells were dissociated and plated on polyornithine-coated tissue culture dishes in the following conditions: 1) HT22 conditioned medium, 2) J147 treated HT22 conditioned medium, 3) DMEM alone plus J147, 4) DMEM plus NGF at 50 nanograms per ml, 5) J147 treated HT22 conditioned medium pre-incubated for one hour with 10 μg/ml anti-NGF and N2 supplement (Invitrogen). N2 supplement, which contains transferrin, was used in the presence of antibody to minimize the possibility that antibody protein non-specifically modified cell-substrate from adhesion and therefore neurite outgrowth. Phase contrast photographs were taken 24 hrs later.
# [5] = tested on: Aβ plaques; assay: immunohistochemistry (6E10) of amyloid plaques in hippocampus of aged huAPP/PS1 mice; format: in vivo
# Protocol: Brains were fixed with 4% paraformaldehyde in 100 mM sodium tetraborate, pH 9.5, for 3 h, cryoprotected with 20% sucrose-potassium-PBS (KPBS), and sectioned into coronal (30 μm) sections using a sliding microtome (Leica Microsystems Inc, Buffalo Grove, IL, USA). Sections were submerged in 0.3% H2O2 for 10 minutes to eliminate endogenous peroxidase activity and treated with 1% borate to eliminate free paraformaldehyde. Sections were incubated with primary antibody in 0.3% Triton X-100 in KPBS plus 2% filtered serum or BSA overnight at 4°C, and with […] (1:1,000) in 0.3% Triton X-100 for 1 hr at room temperature. After incubation with secondary antibody and ABC reagent (Vector Laboratories Inc, Burlingame, CA, USA), sections were developed using metal-enhanced DAB solution. Sections were mounted to slides, dried, dehydrolyzed, treated with xylene, and covered using permount (Fisher Scientific, Pittsburgh, Pennsylvania, USA). […]
# Quantification of amyloid plaque burden was based on the image captured by immunohistochemical staining with antibody 6E10. Sections of each mouse cortex and hippocampus were imaged together and the areas and densities of the plaques in the hippocampus only were measured by the Image J software (NIH). The total counts of Aβ plaques in sections per six mouse brains of each group were determined in an unbiased fashion.
compound,measurement,setting,value
"COc1cccc(/C=N/N(C(=O)C(F)(F)F)c2ccc(C)cc2C)c1 [J147, (E)-N-(2,4-dimethylphenyl)-2,2,2-trifluoro-N'-(3methoxybenzyli-dene) acetohydrazide]","short-term working memory (spontaneous alternations, Y maze)",[1],improve short-term working memory
same,penetration in the Caco-2 assay,[2],moderate and symmetrical penetration
same,brain levels,[3]; at 2 h after a single dose of 20 mg/kg in mice,about 600 nM
same,half life,"[3]; brain, mice, PO",2.5 h
same,bioavailability following oral administration,"[3]; mice, PO",28%
same,half life,"[3]; plasma, mice, PO",1.5 h
same,brain to blood ratio,[3]; single dose of 20 mg/kg in mice,approximately 0.5
same,"neurite outgrowth, fresh DMEM plus J147",[4]; 100 nM J147 in fresh DMEM,did not
same,"neurite outgrowth, conditioned medium from J147 treated HT22 cells","[4]; HT22 cells incubated overnight with 100 nM J147, 24 hrs",promoted neurite outgrowth
same,plaque number and size,[5],no difference in either plaque number or size
